Blank lines part the entries; values can stand above or below the compound they belong to.
Legend:
U-937 cells [1] = test: Growth inhibition, 72-hr continuous exposure; format: cell-based, human; details: U-937, 100 μM, 72 hours continuous incubation
Protocol: (§1) The human-derived cell lines CEM, MOLT-4, RAJI, U-937, K-562 and the murine-derived L1210 were purchased from the American Type Culture Collection, Rockville, Md. Cells were grown and maintained as a suspension culture in RPMI 1640 medium containing L-glutamine and 10%(v/v) heat-inactivated fetal calf serum (BRL-GIBCO, Rockville, Md.). Penicillin-streptomycin solution (Sigma Chemical Co., St. Louis, Mo.) was added to achieve a final concentration of 100 units/mL. and 100 μg/mL respectively.
(§2) All cell lines, except for L1210, were suspended in fresh media at 30,000 cells/mL. L1210 cells were suspended at 10,000 cells/mL. Cells, 2 mL, were added to each of the wells of 24-well plates and incubated with either 0 to 1000 μM of FAU or 0 to 300 μM of FMAU. Incubation was conducted at 37° C. in a humidified 5% CO2 atmosphere for 72 hours. Inhibition of cellular growth was assessed by cell counting (Elzone 180, Particle Data, Inc., Elmhurst, IL). Under these conditions, the control doubling times for CEM, MOLT-4, RAJI, U-937, and K-562 cells were 21-22 hours, while the doubling times for L1210 was 8-10 hours.

RAJI cells [2] = test: Growth inhibition, 72-hr continuous exposure; format: cell-based, human; details: 100 μM, 72 hours continuous incubation
Protocol: as §1, §2

CEM cells [3] = test: Growth inhibition, 72-hr continuous exposure; format: cell-based, human; details: 100 μM, 72 hours continuous incubation
Protocol: as §1, §2

MOLT-4 cells [4] = test: Growth inhibition, 72-hr continuous exposure; format: cell-based, human; details: MOLT-4, 100 μM, 72 hours continuous incubation
Protocol: as §1, §2

K-562 cells [5] = test: Growth inhibition, 72-hr continuous exposure; format: cell-based, human; details: K-562, 100 μM, 72 hours continuous incubation
Protocol: as §1, §2

[6] = FAU plasma concentrations in mice during oral dosing (HPLC); format: in vivo; details: oral gavage 5 g/kg once per day for 14 days
Protocol: (§3) The toxicity of the compounds of the present invention has been evaluated in an animal model system. FAU was administered by oral gavage to mice at a dose of 5 g/kg once per day for 14 consecutive days. After an additional 14 days of observation following this dosing period, the animals were sacrificed. […] Blood samples were obtained at various times during this treatment, to confirm that the drug was adequately absorbed. HPLC analysis of these samples indicated FAU concentrations in plasma reached maximum levels of 750 micromolar and minimum levels of 50 micromolar.

L1210 cells [7] = test: Intracellular nucleotide formation and incorporation into DNA; format: cell-based, murine; details: L1210, 10 μM FAU for 24 hours; incorporated as FMAU
Protocol: as §1
(§4) All cell lines, except for L1210, were resuspended in fresh media at 300,000 cells/mL with appropriate amount of radioactive drug. L1210 cells were resuspended at 150,000 cells/mL. […] Soluble nucleotides were determined for each cell line following exposure to 10 μM FAU. Incorporation of FAU into DNA (as FMAU) was determined over a range of FAU concentrations from 1 μM to 1 mM. […] These bases and soluble nucleotides were determined by previously reported HPLC-based methods as noted by Klecker et al. in the previously mentioned reference, “Toxicity, Metabolism, DNA Incorporation with Lack of Repair, and Lactate Production for 1-(2′-fluoro-2′-deoxy-β-D-arabinofuranosyl)-5-iodouracil in U-937 and MOLT-4-cells.” Drug incorporation into cellular DNA was determined using the equation: percent incorporation=100×([drug]/([dThd]+[drug]).

[8] = tested on: CEM, MOLT-4, RAJI, U-937, K-562 and L1210 cells; test: Growth inhibition, 72-hr continuous exposure, all cell lines; format: cell-based, human; murine
Protocol: as §1, §2

[9] = tested on: CEM, MOLT-4, RAJI, U-937, K-562 and L1210 cells; test: Intracellular nucleotide formation, all cell lines; format: cell-based, human; murine; details: incubation with 10 μM FAU for 24 hours
Protocol: as §1, §4

mice = test: Toxicity in mice after oral gavage for 14 days; format: in vivo; details: oral gavage 5 g/kg once per day for 14 days, plus 14 days observation
Protocol: as §3

L1210 cells [10] = test: Growth inhibition, 72-hr continuous exposure; format: cell-based, murine; details: L1210, 100 μM, 72 hours continuous incubation
Protocol: as §1, §2

U-937 cells [11] = test: Intracellular nucleotide formation and incorporation into DNA; format: cell-based, human; details: U-937, 10 μM FAU for 24 hours
Protocol: as §1
(§5) All cell lines, except for L1210, were resuspended in fresh media at 300,000 cells/mL with appropriate amount of radioactive drug. L1210 cells were resuspended at 150,000 cells/mL. After 24 hours at 37° C. in a humidified 5% CO2 atmosphere, cells were harvested for nucleotide measurement and DNA incorporation. Soluble nucleotides were determined for each cell line following exposure to 10 μM FAU. Incorporation of FAU into DNA (as FMAU) was determined over a range of FAU concentrations from 1 μM to 1 mM. As described previously by Klecker, R W, Katki A G, Collins J M. in “Toxicity, Metabolism, DNA Incorporation with Lack of Repair, and Lactate Production for 1-(2′-Fluoro-2′-deoxy-β-D-arabinofuranosyl)-5-iodouracil in U-937 and MOLT-4-cells”, Mol. Pharmacol. 1994; 46;1204-1209; and Speth P A J, Kinsella T J, Chang A E, Klecker R W, Belanger K. Collins J M. in “Incorporation of Iododeoxyuridine into DNA of Hepatic Metastases Versus Normal Human Liver.” Clin. Pharmacol. Ther. 1988; 44:369-75, DNase I and phosphodiesterase I were used to release the bases from DNA. These bases and soluble nucleotides were determined by previously reported HPLC-based methods as noted by Klecker et al. in the previously mentioned reference, “Toxicity, Metabolism, DNA Incorporation with Lack of Repair, and Lactate Production for 1-(2′-fluoro-2′-deoxy-β-D-arabinofuranosyl)-5-iodouracil in U-937 and MOLT-4-cells.” Drug incorporation into cellular DNA was determined using the equation: percent incorporation=100×([drug]/([dThd]+[drug]).

RAJI cells [12] = test: as above; format: cell-based, human; details: 10 μM FAU for 24 hours
Protocol: as §1, §5

CEM cells [13] = test: as above; format: cell-based, human; details: 10 μM FAU for 24 hours
Protocol: as §1, §5

MOLT-4 cells [14] = test: as above; format: cell-based, human; details: MOLT-4, 10 μM FAU for 24 hours
Protocol: as §1, §5

K-562 cells [15] = test: as above; format: cell-based, human; details: K-562, 10 μM FAU for 24 hours
Protocol: as §1, §5

[16] = tested on: thymidylate synthase (TS) in cell extracts of the other cell lines; test: Methylation of FAUMP by thymidylate synthase in cell extracts (tritium release), other cell lines; format: biochemical, human; murine; details: 20 μM substrate, tritiated water release
Protocol: (§6) When TS adds a methyl group to the 5-position of dUMP to generate dTMP, the proton at that location is released. When [5-^3H]dUMP is the substrate, TS activity in cell extracts can be assessed by monitoring the accumulation rate of tritiated water. Here, [5-^3H]FAUMP was used as the substrate for methylation by TS, and the generation of FMAUMP was determined from the release of tritiated water. Cell extracts were prepared from each cell line by sonication of intact cells. (See: Armstrong R D, Diasio R B. “Improved Measurement of Thymidylate Synthetase Activity by a Modified Tritium-Release Assay” J. Biochem. Biophys. Methods. 1982; 6: 141-7 and Speth P A J, Kinsella T J, Chang A E, Klecker R W, Belanger K. Collins J M. “Incorporation of Iododeoxyuridine into DNA of Hepatic Metastases Versus Normal Human Liver” Clin. Pharmacol. Ther. 1988; 44:369-75.) The methyl donor was provided by 5,10-methylene tetrahydrofolate, which was generated in situ by the addition of formaldehyde to tetrahydrofolate. At various times after the addition of substrate (20 μM of either [5-^3H]dUMP or [5-^3H]FAUMP), the reaction was stopped by addition of HCl. Unreacted substrate was separated from tritiated water by adsorption onto activated charcoal. After centrifugation, an aliquot of the supernatant was counted for tritiated water.

[17] = target: T1, thymidylate synthase (TS) in U-937 cell extracts (Homo sapiens, UniProt P04818); test: Methylation of FAUMP by thymidylate synthase in cell extracts (tritium release); format: biochemical; details: 20 μM substrate, tritiated water release
T1 construct: Cell extracts were prepared from each cell line by sonication of intact cells; endogenous in cells; host or cells: U-937 cells (sonicated extract)
Protocol: as §6

T1 sequence (P04818 whole entry): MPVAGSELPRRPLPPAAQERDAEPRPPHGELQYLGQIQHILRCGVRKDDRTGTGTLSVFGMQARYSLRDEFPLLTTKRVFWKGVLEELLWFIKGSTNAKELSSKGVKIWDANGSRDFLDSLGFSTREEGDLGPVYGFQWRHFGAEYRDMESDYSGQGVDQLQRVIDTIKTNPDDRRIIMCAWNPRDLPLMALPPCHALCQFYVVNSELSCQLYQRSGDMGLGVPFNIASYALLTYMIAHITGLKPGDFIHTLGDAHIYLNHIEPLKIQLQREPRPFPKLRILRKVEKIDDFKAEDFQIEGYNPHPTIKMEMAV

SMILES: O=c1ccn([C@@H]2O[C@H](CO)[C@@H](O)[C@@H]2F)c(=O)[nH]1 [FAU, 1-(2′Fluoro-2′deoxy-β-D-arabinofuranosyl)-uracil]
growth inhibition (U-937 cells [1]): more than 50%
growth inhibition (RAJI cells [2]): completely uninhibited
growth inhibition (CEM cells [3]): more than 50%
growth inhibition (MOLT-4 cells [4]): somewhat less inhibited
growth inhibition (K-562 cells [5]): somewhat less inhibited
FAU concentration in plasma, maximum level [6]: 750 µM
FAU concentration in plasma, minimum level [6]: 50 µM
DNA % incorp (L1210 cells [7]): 0.08 ± 0.005%
IC50 values relative to FMAU (fold higher) [8]: 10 fold
amounts of FMAUMP or FMAUDP found intracellularly [9]: trace amounts
histopathologic examination of murine tissues (toxicity) (mice): no toxicity attributable to the drug treatment
growth inhibition (L1210 cells [10]): completely uninhibited
FAUMP formed intracellularly (U-937 cells [11]): 2.70 ± 0.69 nmol/10^6 cells
FMAUTP formed intracellularly (U-937 cells [11]): 1.99 ± 0.08 nmol/10^6 cells
DNA % incorp (U-937 cells [11]; incorporated as FMAU): 0.50 ± 0.02%
FAUMP formed intracellularly (RAJI cells [12]): 0.95 ± 0.17 nmol/10^6 cells
DNA % incorp (RAJI cells [12]; incorporated as FMAU): 0.09 ± 0.002%
FAUMP formed intracellularly (CEM cells [13]): 0.96 ± 0.24 nmol/10^6 cells
FMAUTP formed intracellularly (CEM cells [13]): 2.30 ± 0.28 nmol/10^6 cells
DNA % incorp (CEM cells [13]; incorporated as FMAU): 0.81 ± 0.10%
FMAUTP formed intracellularly (MOLT-4 cells [14]): 1.92 ± 0.55 nmol/10^6 cells
DNA % incorp (MOLT-4 cells [14]; incorporated as FMAU): 0.19 ± 0.01%
FAUMP formed intracellularly (K-562 cells [15]): 11.1 ± 0.9 nmol/10^6 cells
DNA % incorp (K-562 cells [15]; incorporated as FMAU): 0.22 ± 0.002%

rate of conversion to FMAUMP as % of the rate of dTMP formation from dUMP [17]: about 1%
SMILES: O=c1ccn([C@@H]2O[C@H](COP(=O)(O)O)[C@@H](O)[C@@H]2F)c(=O)[nH]1 [FAUMP, FAU monophosphate]
rate of conversion to FMAUMP as % of the rate of dTMP formation from dUMP [16]: 0.97-1.5%

— patent publication US6677315B2, “Nucleosides for imaging and treatment applications” (The United States of America as represented by the …, priority 1997, dated 2004)
